Where a SMILES comes first, the peptide text is derived from it. The star is where a group is joined. Cbz = O=C(OCc1ccccc1)*; CH2F = FC*
What was measured:
[1] = test system: Bone marrow derived macrophages (BMDM); test: cytokine production by activated bone marrow derived macrophages (CBA); format: cell-based, mouse; details: 20 μg/ml; TNFα primed, E. faecalis activated BMDM
Description: (§1) Bone marrow derived macrophages (BMDM) were prepared as previously described by methods known to those skilled in the art. On day 5 of culture, 2×10^6 BMDM were seeded in 6-well plates and the following day were primed for 18 h with TNFα (20 ng/mL), followed by 1 h stimulation with E. faecalis (1 μg/mL; ATCC). Stimulation with E. faecalis was conducted in the presence of the zLLY-CH2F calpain-2 inhibitor (20 μg/mL) or DMSO as a control. Media was removed from treated BMDM, centrifuged at 300×g for 5 min and supernatent analyzed using the Cytometric Bead Array Mouse Inflammation Kit (BD Biosciences, San Jose, Calif.). Cytokine data were analyzed using Flowjo software (Ashland, Oreg.) and GraphPad Prism version 4.0 (GraphPad, La Jolla, Calif.). Cell pellets were lysed and analyzed for IκB and NFκB by Western blot as previously described (Miyazaki, T. et al. Journal of Atherosclerosis and Thrombosis 20, 228-237, 2013). In other experiments, mouse CT-26.WT and human HT-29 colon cancer cells were plated in 96-well plates at 10^3 cells/well with 20 μg/mL inhibitor or DMSO, followed by analyses for IκB and NFκB by Western blot as described above for BMDM. For proliferation assays, fresh media with 20 μg/mL inhibitor or DMSO were added every 2 d. Each day 4 wells were quantified using Celltiter MTS reagent (Promega) and the resulting signal was used to generate a proliferation curve. Calpain activity was measured using a Calpain activity assay kit (BioVision, Inc., Milpitas, Calif.) as previously described. Colons were harvested on day 4 and calpain activity measured. Enzyme-linked immunosorbant assay (ELISA) analyses of cecum hemoglobin has been previously described (Miyazaki, T. et al. Journal of Atherosclerosis and Thrombosis 20, 228-237, 2013).
To determine if a similar mechanism may be contributing to the effect of the calpain-2 inhibition in the DSS model of colitis, macrophages were analyzed for NFκB activation and inflammatory cytokine secretion. Bone marrow derived macrophages were primed […] with TNFα (20 ng/ml) and activated with E. faecalis (1 μg/ml) for 1 h in the presence or absence of calpain-2 inhibitor (20 μg/ml). Supernatants were evaluated for a panel of cytokines including IFNγ, TNFα, IL-6, and MCP-1, IL-10, and IL-12. Real-time PCR was performed on total RNA extracted from colon tissues to access levels of cytokines. Media was collected from wells and cytokines assessed by CBA kit (BD Biosciences). For IκB blotting cells were lysed and SDS-PAGE was performed. Membranes were stained with anti-IκB (Cell Signalling) and anti-βactin (Santa Cruz). For NfκB blotting an NFκB Activation Kit (Five Photon) was used to isolate nuclear fractions. These fractions were transferred using SDS-PAGE. The membranes were stained with anti-NFκB (Santa Cruz) or anti-TATA (Abcam). Data are mean±SE (n=3) and represent results from three independent experiments. *p<0.05; one way ANOVA followed by Tukey post-test. […] Importantly, those cytokines most affected by the calpain-2 are regulated by NFκB.

[2] = test system: IκB / NFκB in HT-29 cells; test: IκB and nuclear NFκB western blot, HT-29; format: cell-based, human; details: HT-29, vs DMSO
Description: as §1, with “In other experiments, mouse CT-26.WT and human HT-29 colon cancer cells were plated in 96-well plates at 10^3 cells/well with 20 μg/mL inhibitor or DMSO, followed by analyses for IκB and NFκB by Western blot as described above for BMDM. For proliferation assays, fresh media with 20 μg/mL inhibitor or DMSO were added every 2 d.” left out, “Enzyme-linked immunosorbant assay (ELISA) analyses of cecum hemoglobin has been previously described (Miyazaki, T. et al. Journal of Atherosclerosis and Thrombosis 20, 228-237, 2013).” left out

[3] = test system: Akt phosphorylation / FAK cleavage in macrophages; test: other m-calpain regulated pathways in macrophages (Akt, FAK); format: cell-based
[4] = test system: Akt phosphorylation / FAK cleavage in colon cancer cells; test: other m-calpain regulated pathways in colon cancer cells (Akt, FAK); format: cell-based

For `CC(C)C[C@H](NC(=O)OCc1ccccc1)C(=O)N[C@@H](CC(C)C)C(=O)N[C@@H](Cc1ccc(O)cc1)C(=O)CF` [zLLY-CH2F, Z-LLY-CH2F] (Cbz-Leu-Leu-Tyr-CH2F), which “production of IFNγ” value [1] is on record?
Its value is “significant decrease”.

And the “production of IL-6” value [1]?
Its value is “significant decrease”.

What about the “production of IL-10” value [1] of the same compound?
The value was “not significantly affected”.

What about the “production of IL-12” value [1] of the same compound?
The value was “not significantly affected”.

And the “production of MCP-1” value [1]?
Its value is “significant decrease”.

What about the “production of TNFα” value [1] of the same compound?
Its value is “significant decrease”.

What about the IκB degradation [2] of the same compound?
Its IκB degradation is “reduced”.

What about the NFκB nuclear localization [2] of the same compound?
Its NFκB nuclear localization is “reduced”.

And the FAK cleavage [3]?
Its FAK cleavage is “major effect”.

What about the “phosphorylation of Akt” value [3] of the same compound?
Its value is “inhibited”.

What about the FAK cleavage [4] of the same compound?
The FAK cleavage was “not apparent”.

What about the “phosphorylation of Akt” value [4] of the same compound?
Its value is “inhibited”.
